Results from the NIST ThermoML archive (doi:10.1016/j.jct.2015.05.024).

Experiment: xn = mol fraction of the nth substance listed
Settings: 100 kPa, Liquid, Vibrating tube method

OCCOCCOCCO [triethylene glycol] + O
mass density [kg/m3]
Settings | 323.15 K | 328.15 K | 333.15 K
x1 = 0.0107 | – | 996.693 | 994.065
x1 = 0.02047 | – | 1005.64 | 1002.89
x1 = 0.03972 | – | 1020.67 | 1017.67
x1 = 0.04979 | – | 1027.35 | 1024.24
x1 = 0.06996 | – | 1038.74 | 1035.42
x1 = 0.09424 | – | 1049.58 | 1046.06
x1 = 0.1481 | – | 1065.82 | 1062.02
x1 = 0.2006 | – | 1075.2 | 1071.28
x1 = 0.2502 | – | 1080.82 | 1076.84
x1 = 0.2988 | 1088.45 | 1084.52 | 1080.53
x1 = 0.3492 | 1091.15 | 1087.21 | 1083.23
x1 = 0.3925 | 1092.88 | 1088.93 | 1084.95
x1 = 0.4502 | 1094.61 | 1090.66 | 1086.7
x1 = 0.4877 | 1095.48 | 1091.55 | 1087.58
x1 = 0.5004 | 1095.75 | 1091.81 | 1087.85
x1 = 0.5739 | 1097.01 | 1093.08 | 1089.13
x1 = 0.58 | 1097.09 | 1093.16 | 1089.21
x1 = 0.6465 | 1097.92 | 1093.99 | 1090.05
x1 = 0.651 | 1097.96 | 1094.04 | 1090.1
x1 = 0.7008 | 1098.44 | 1094.53 | 1090.59
x1 = 0.7471 | 1098.82 | 1094.91 | 1090.97
x1 = 0.7677 | 1098.97 | 1095.06 | 1091.13
x1 = 0.82 | 1099.31 | 1095.4 | 1091.47
x1 = 0.8623 | 1099.56 | 1095.64 | 1091.71
x1 = 0.8792 | 1099.64 | 1095.73 | 1091.81
x1 = 0.8975 | 1099.74 | 1095.83 | 1091.9
x1 = 0.9203 | 1099.85 | 1095.94 | 1092.01
x1 = 0.9514 | 1100 | 1096.09 | 1092.16
x1 = 0.9692 | 1100.08 | 1096.17 | 1092.24
x1 = 1 | 1100.22 | 1096.3 | 1092.38
